In US8552068B2, “Compositions and methods” (priority 2004, dated 2013):
“Also recorded” adds a separate entry of the source.

How the values were obtained:
[1] = test system: Artificially-ventilated pentobarbital anesthetised rabbits; assay: Intravenous infusion of carrier solutions saturated with pure nitric oxide gas; exhaled NO and MAP; assay type: in vivo, rabbit
Protocol: Male white New Zealand rabbits were subjected to different doses of an intravenous infusion of NO-substituted solutions at different doses. Several physiological parameters were measured during the experiments, including NO concentration in mixed exhaled gas (FENO).
(§1) Different carrier media solutions (table 1) were dissolved and diluted with saline or water to obtain different concentration of the solutions. The solution was then placed in a gas-tight chamber and deoxygenated by means of helium bubbling for 10 min. The glass chamber was then gassed with pure nitric oxide gas for 3-4 min.
Data are given as mean±SEM.

[2] = test system: artificially ventilated pentobarbital anaesthetized rabbits; assay: Effects of L-NAME infusion in anaesthetised rabbit; conditions: L-NAME 30 mg kg^−1 throughout 10 min
Source text: The experiments were approved by the local animal ethics committee. […] The animals were placed in supine position and tracheotomised just below the cricoid cartilage to allow mechanical ventilation using a tracheal cannula with an outer diameter of 5 mm. […] The ventilator was supplied with NO-free air using a charcoal filter (110×11 cm). […] The minute ventilation was 0.64-0.96 l min^−1. To the other side arm a pressure transducer (Statham, Hato Rey, Puerto Rico) was connected thus monitoring the insufflation pressure. The gas from the ventilator outlet was led through a switching valve to either of two beakers creating a positive end-expiratory pressure (PEEP) of 1-2 CmH2O or 4-5 cmhbO. During the experiment the gas flow was altered between the lower PEEP (9 min) and the higher PEEP (1 min) with an interval of totally 10 min. […] A heparinized catheter was inserted in the left common carotid artery for blood pressure and heart rate recordings (pressure transducer, Statham, Hato Rey, Puerto Rico), and arterial blood sampling. Another catheter was inserted in the right jugular vein for drug and muscle emboli administration. […] The muscles from the anterior compartment of the right lower hind limb were resected and placed in normal saline. Hereafter the animals were allowed a 30-60 min intervention-free period to obtain stable circulatory conditions and stable concentrations of expired NO.
NO concentration, in mixed exhaled gas, was continuously measured by means of a chemiluminescence based system (Niox, Aerocrine AB, Solna, Sweden) sampling at 100 ml min^−1 at the end of a mixing chamber connected to the ventilator exhaust. The full mixing of expired air thus measured on was intermittently checked by monitoring CO2 concentration in the same chamber. In a few experiments, gas for NO measurement was sampled from the trachea at the same point as for tidal CO2 measurements, thus yielding breath by breath NO concentrations. Calibration was done using certified NO standard gas in nitrogen (AGA Specialgas, Lidingδ, Sweden).
Blood samples were collected and analyzed for blood gases and acid-base status (ABL 300, Radiometer A/S, Copenhagen, Denmark) before L-NAME administration (group 2, time=−40 min) and shortly before muscle emboli challenge (group 1 and 2, time=−5 min). […] Arterial blood samples were collected and analysed at 10 min, 20 min, 40 min and 60 min after embolization. NO concentration in exhaled gas, end-tidal CO2, heart rate, mean arterial pressure and insufflation pressure was continuously monitored on a Grass Polygraph (Grass Instruments Co, Quincy, Mass., USA) during the experiments.

[3] = Deoxygenation and exposure of carrier to NO gas (suitability for infusion); assay type: physicochemical
Protocol: as §1

[4] = test system: pulmonary embolism / venous gas embolism in NO-synthesis inhibited animals; assay: Treatment of embolism with NO in lipid emulsion in animals with inhibited NO production; assay type: in vivo; conditions: animal with inhibited NO production
Source text: It is contemplated that the NO infusion exerts vasodilatory effects in the pulmonary circulation, and/or mild vasodilatory effect on systemic circulation, and inhibits thrombocyte aggregation, or a combination of these effects.
The beneficial effects may be induction of vasodilation in the pulmonary vasculature, inhibition of aggregation of thrombocytes and/or minor vasodilation in the whole or parts of the systemic circulation, for example in the coronary circulation.

| Compound | effect as NO carrier / NO delivering capacity (words) ([1]; compared to the saline control) | Exhaled NO, Change (%) ([1]; infusion versus pre-infusion) | Exhaled NO, Change (absolute value) ([1]; infusion versus pre-infusion) [ppb] | MAP, Change (%) ([1]; infusion versus pre-infusion) | MAP, Change (absolute value) ([1]; infusion versus pre-infusion) [cmH2O] | further results |
| --- | --- | --- | --- | --- | --- | --- |
| CC(O)CO (stereo not drawn) [1,2-Propanediol] | noticeable effect; also recorded: exhibited NO delivering capacity | 217 | 27.9 | −16 | −14.7 |  |
| OCCCO [1,3-Propanediol] | noticeable effect; also recorded: exhibited NO delivering capacity | 562 | 78.2 | −33 | −38.2 |  |
| COC1O[C@H](CO)[C@@H](O)[C@H]1O (stereo partly drawn) [1-O-methyI-Ribose, 1-O-methyl-ribose] | noticeable effect | 1284 | 155.9 | −50 | −50.0 |  |
| NC(CO)CO [2-Amino-1,3-propanediol] |  | 14 | 2.4 |  |  |  |
| O=CC[C@H](O)[C@H](O)CO [2-deoxy-Ribose] | noticeable effect | 269 | 32.7 |  |  |  |
| NCC(O)CO (stereo not drawn) [3-Amino-1,2-propanediol] |  | 0 | 0 |  |  |  |
| C[C@H](N)C(=O)O [Alanine] |  | 0 | 0 |  |  |  |
| N=C(N)NCCC[C@H](N)C(=O)O [Arginine] |  |  |  |  |  | Exhaled NO, Change (%) ([1]; rabbit, in vivo): 3%; Exhaled NO, Change (absolute value) ([1]; rabbit, in vivo): 0.6 ppb |
| CCCO [Carrier 1-Propanol, 1-Propanol] |  | 733 |  | −11 |  |  |
| CC(C)O [Carrier 2-PropanoI, 2-propanol] | noticeable effect; also recorded: marked effect | 1400 | 180 | −15 | −14.7 |  |
| CCO [Etanol] |  | 0 | 0 | 0 | 0 |  |
| O=C(CO)[C@@H](O)[C@H](O)[C@H](O)CO [Fructose (60%), Fructose] | noticeable effect | 88 | 13.1 |  |  |  |
| C[C@H](O)[C@@H](O)[C@@H](O)[C@H](O)C=O [Fucose] | noticeable effect | 22 | 4.1 |  |  |  |
| O=C[C@H](O)[C@@H](O)[C@@H](O)[C@H](O)CO [Galactose (60%), Galactose] |  |  |  |  |  | Exhaled NO, Change (%) ([1]; rabbit, in vivo): 41%; Exhaled NO, Change (absolute value) ([1]; rabbit, in vivo): 3.3 ppb; effect as NO carrier / NO delivering capacity (words) ([1]; rabbit, in vivo): noticeable effect |
| N[C@H]1C(O)O[C@H](CO)[C@@H](O)[C@@H]1O (stereo partly drawn) [Glucosamine] |  | −9 | −0.9 |  |  |  |
| O=C[C@H](O)[C@@H](O)[C@H](O)[C@H](O)C(=O)O [Glucuronic acid] |  | 0 | 0 |  |  |  |
| OCC(O)CO [Glycerol] | act as a selective NO carrier | 475 ± 120 | 63.3 ± 10.5 |  |  | effect as NO carrier / NO delivering capacity (words) ([1]; compared to the saline control, listed as glycerol): noticeable effect |

| Compound | effect as NO carrier / NO delivering capacity (words) ([1]; compared to the saline control) | Exhaled NO, Change (%) ([1]; infusion versus pre-infusion) | Exhaled NO, Change (absolute value) ([1]; infusion versus pre-infusion) [ppb] | MAP, Change (%) ([1]; infusion versus pre-infusion) | MAP, Change (absolute value) ([1]; infusion versus pre-infusion) [cmH2O] | further results |
| --- | --- | --- | --- | --- | --- | --- |
| NCC(=O)O [Glycine] |  | −4 | −0.6 |  |  |  |
| COC(=O)[C@@H](N)CCCNC(=N)N[N+](=O)[O-] [L-NAME, N^G-nitro-L-arginine methyl ester] |  |  |  |  |  | End-tidal CO2 and the relevant blood gas parameters [2]: normal; exhaled nitric oxide after L-NAME infusion [2]: < 1 ppb; heart rate (HR) after L-NAME infusion [2]: 258 beats min^−1; systemic mean arterial blood pressure (MAP) after L-NAME infusion [2]: 128 cmHaO |
| N[C@@H](CS)C(=O)O [L-cysteine] |  |  |  |  |  | behaviour when deoxygenated and exposed to NO gas [3]: a copious precipitate, unsuitable for infusion, was formed |
| CC(O)C(=O)O (stereo not drawn) [Lactate] |  | 0 | 0 | −2 | −1.5 |  |
| O=C(O)[C@H](O)[C@@H](O)[C@H](O[C@@H]1O[C@H](CO)[C@H](O)[C@H](O)[C@H]1O)[C@H](O)CO [Lactobionic acid] | noticeable effect | 42 | 8.3 | −35 | −32.4 |  |
| OC[C@@H](O)[C@@H](O)[C@H](O)[C@H](O)CO [Mannitol (20%), Mannitol] | noticeable effect; also recorded: positive results | 55.6 | 4.7 |  |  |  |
| CC(=O)N[C@@H](CS)C(=O)O [N-Acetylcysteine] | noticeable effect | 19 | 4.1 |  |  |  |
| O=C[C@H](O)[C@H](O)[C@H](O)CO [Ribose (50%), Ribose] | noticeable effect | 77 ± 43 | 8.2 ± 3.0 |  |  |  |
| OC[C@@H](O)[C@@H](O)[C@H](O)[C@@H](O)CO [Sorbitol (60%), Sorbitol] | noticeable effect | 60 | 4.2 |  |  |  |
| OC[C@H]1O[C@@](CO)(O[C@H]2O[C@H](CO)[C@@H](O)[C@H](O)[C@H]2O)[C@@H](O)[C@@H]1O [Sucrose (60%), Sucrose] | noticeable effect | 75 | 11.2 |  |  |  |
| [N]=O [inhaled nitric oxide, nitric oxide] |  |  |  |  |  | treatment of venous gas embolism [4]: impossible to treat |
| Dextran [Dextran (15%)] | noticeable effect; also recorded: positive results | 24 | 2.8 | −34 | −45.5 |  |
| Fucoidan [Fucoidan (10%)] | noticeable effect | 23 | 4.7 | −52 | −55.9 |  |
| Heparin [Heparin (15000 IU/ml, 10%)] |  | −5 | −0.6 | −12 | −8.8 |  |
| Inulin [Inulin (15%)] | noticeable effect | 12 | 1.8 | −31 | −26.5 |  |
| PEG 400 | positive results |  |  |  |  |  |
| Polyethylene glycol | noticeable effect | 61 | 11.2 | −19 | −17.6 |  |
